The text below walks through data of patent US12643887B2, “Heterocyclic derivatives with cardiomyocyte proliferation activity for treatment of heart diseases” (Tongji University, priority 2019, dated 2026).

Like-named read-outs stand apart in the source and are kept apart here.

The target of the experiment is T1, human CIT (Homo sapiens, UniProt O14578).
T1 construct: Recombinant human CIT (1-499); GST (N); purchased SignalChem C52-11G; host or cells: Sf9 insect cells
The experiment can be described thus: CIT enzyme assay (ADP-Glo). The format is biochemical. The method, then: The ability of compounds to inhibit human CIT kinase activities was determined using a commercially available ADP-Glo™ Kinase Assay kit (Promega, Cat #V9102) according to the manufacturer's protocol.
Recombinant human CIT (1-499) (expressed in Sf9 insect cells with an N-terminal GST tag) was purchased from SignalChem (Cat #C52-11G). Recombinant full length human MBP (expressed in E. Coli cells with an N-terminal GST tag) was purchased from SignalChem (Cat #M42-54G). This assay, run in a 384-well plate format, is a generic method for measuring kinase activities using an ADP-Glo Kinase Assay Kit. The basic assay procedure involves two steps: (1) Enzymatic step: inhibitors are incubated with the kinase and then ATP (included in the ADP-Glo Kinase Assay Kit) and the MBP protein are added to start the enzymatic reaction; (2) Detection step: after the kinase reaction, first ADP-Glo™ Reagent is added to terminate the kinase reaction and deplete the remaining ATP. Second, the Kinase Detection Reagent is added to simultaneously convert ADP to ATP and allow the newly synthesized ATP to be measured using a luciferase/luciferin reaction. The light generated is measured using a luminometer.
Briefly, CIT (20 nM) in the enzymatic buffer solutions (40 mM Tris, pH 7.5, 20 mM MgCl2, 0.1 mg/ml BSA, 50 μM DTT) were mixed with various concentrations of inhibitors (dissolved in 100% DMSO). These solutions were incubated for 30 minutes at 25° C., and subsequently a mixture of substrate peptide and ATP was added with the final peptide and ATP concentrations at 0.05 mg/ml and 5 μM, respectively. The final reaction mixture of enzyme-substrate-ATP-compound was incubated for 90 minutes at 25° C.
Afterwards ADP-Glo™ Reagent was added and the mixture was incubated at 25° C. for 60 minutes. Then Kinase Detection Reagent was added, and the final mixture was incubated at 25° C. for 60 minutes. The luminescence signal of the final solution was measured on an Envision instrument (PerkinElmer). The percent (%) inhibition at each concentration of a compound is calculated relative to the luminescence signal in the Max and Min control wells contained within each assay plate. […] The concentrations and percent inhibition values for a test compound are plotted and the concentration of the compound required to achieve 50% inhibition (IC50) is determined with a four-parameter logistic dose response equation.

Setting [1] is: ADP-Glo, ATP 5 μM, read-out: CIT IC50.

T1 sequence (O14578 1-499): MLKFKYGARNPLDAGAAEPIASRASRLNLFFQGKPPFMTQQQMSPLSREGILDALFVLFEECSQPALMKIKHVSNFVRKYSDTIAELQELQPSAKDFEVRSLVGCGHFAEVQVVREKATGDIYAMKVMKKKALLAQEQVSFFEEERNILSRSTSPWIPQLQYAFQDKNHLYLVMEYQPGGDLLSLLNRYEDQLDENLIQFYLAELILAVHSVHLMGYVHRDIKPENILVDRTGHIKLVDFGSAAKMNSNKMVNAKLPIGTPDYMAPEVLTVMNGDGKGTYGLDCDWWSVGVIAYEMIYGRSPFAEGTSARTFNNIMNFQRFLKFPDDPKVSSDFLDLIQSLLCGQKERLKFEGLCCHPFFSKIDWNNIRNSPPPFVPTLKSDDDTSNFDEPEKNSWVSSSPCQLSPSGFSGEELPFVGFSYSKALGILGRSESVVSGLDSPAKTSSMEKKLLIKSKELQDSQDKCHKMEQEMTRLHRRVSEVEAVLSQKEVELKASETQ

With `CCN(C1=N/C(=C\c2ccc3c(c2)OCO3)C(=O)N1)c1ccccc1` [Example 4, (Z)-5-(benzo[d][1,3]dioxol-5-ylmethylene)-2-(ethyl(phenyl)amino)-3,5-dihydro-4H-imidazol-4-one], under setting [1], the concentration for half-maximal inhibition (IC50) – broadly, the concentration that gives 50% inhibition – is more than 10 µM.

With `Nc1ccc(NC2=N/C(=C\c3ccc4ncsc4c3)C(=O)N2)cc1` [Example 98, (Z)-2-((4-aminophenyl)amino)-5-(benzo[d]thiazol-6-ylmethylene)-3,5-dihydro-4H-imidazol-4-one], the IC50 under setting [1] was 0.1 to 1 µM.

For `Cc1nc2ccc(NC3=N/C(=C\c4ccc5ncsc5c4)C(=O)N3)cc2s1` [Example 90, (Z)-5-(benzo[d]thiazol-6-ylmethylene)-2-((2-methylbenzo[d]thiazol-6-yl)amino)-3,5-dihydro-4H-imidazol-4-one], the IC50 under setting [1] was more than 10 µM.

Consider `CC(=O)N(C1=N/C(=C\c2ccc3c(c2)OCO3)C(=O)N1)c1ccccc1` [Example 5, (Z)—N-(4-(benzo[d][1,3]dioxol-5-ylmethylene)-5-oxo-4,5-dihydro-1H-imidazol-2-yl)-N-phenylacetamide], for which the half-inhibitory concentration (IC50) was more than 10 µM.
